This experiment deals with T1, recombinant Vps34 (Homo sapiens, UniProt Q8NEB9).
T1 construct: purchased Invitrogen PV5126
Description: Phosphorylation of phosphatidylinositol (PI) by Vps34 in vitro, ADP detected by TR-FRET (HTRF Transcreener ADP). It counts as biochemical. The note with it: 10 μM ATP, 55 μg/ml PI, approximately 3 nM Vps34, 1 hour at ambient temperature; absolute IC50, mean of two independent experiments; read-out: IC50 activity range. For orientation: Time-resolved FRET reads energy transfer from a long-lived donor to a nearby acceptor.

pIC50: −log10 of the molar value.

T1 sequence (Q8NEB9 whole entry): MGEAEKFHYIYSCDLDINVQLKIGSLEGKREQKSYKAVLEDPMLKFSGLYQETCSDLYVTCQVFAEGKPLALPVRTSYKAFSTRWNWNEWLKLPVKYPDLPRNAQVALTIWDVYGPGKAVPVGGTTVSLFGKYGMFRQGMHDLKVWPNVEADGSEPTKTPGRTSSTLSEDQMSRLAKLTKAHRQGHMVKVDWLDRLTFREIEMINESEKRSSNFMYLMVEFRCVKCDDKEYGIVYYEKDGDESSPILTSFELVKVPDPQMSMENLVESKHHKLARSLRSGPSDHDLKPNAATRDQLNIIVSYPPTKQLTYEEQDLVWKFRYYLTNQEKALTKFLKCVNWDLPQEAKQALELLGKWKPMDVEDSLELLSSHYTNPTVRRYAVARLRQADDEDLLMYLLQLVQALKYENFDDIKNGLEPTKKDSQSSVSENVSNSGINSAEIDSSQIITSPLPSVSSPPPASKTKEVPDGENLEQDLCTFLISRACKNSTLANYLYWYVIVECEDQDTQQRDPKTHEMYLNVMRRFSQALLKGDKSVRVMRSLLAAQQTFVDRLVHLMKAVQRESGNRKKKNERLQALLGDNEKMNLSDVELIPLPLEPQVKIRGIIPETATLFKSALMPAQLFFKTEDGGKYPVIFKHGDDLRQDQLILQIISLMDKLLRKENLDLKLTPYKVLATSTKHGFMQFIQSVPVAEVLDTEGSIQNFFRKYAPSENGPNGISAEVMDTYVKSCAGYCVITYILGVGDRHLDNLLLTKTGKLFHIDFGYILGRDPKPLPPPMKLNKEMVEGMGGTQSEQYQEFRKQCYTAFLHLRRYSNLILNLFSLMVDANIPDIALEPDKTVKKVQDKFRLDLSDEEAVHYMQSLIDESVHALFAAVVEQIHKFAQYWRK

For the compound `C[C@@H]1COCCN1c1cc(=O)n2c(n1)N(CC(=O)c1ccccc1)[C@H](C(F)(F)F)CC2` [Example 99, (S)-2-((R)-3-Methyl-morpholin-4-yl)-9-(2-oxo-2-phenylethyl)-8-trifluoromethyl-6,7,8,9-tetrahydro-pyrimido[1,2-a]-pyrimidin-4-one], the pIC50 is > 8.00. Regarding `C[C@@H]1COCCN1c1cc(=O)n2c(n1)N(CC(=O)Nc1ccccc1)[C@H](C(F)(F)F)CC2` [Example 236, 2-[(S)-8-((R)-3-Methyl-morpholin-4-yl)-6-oxo-2-trifluoromethyl-3,4-dihydro-2H,6H-pyrimido[1,2-a]-pyrimidin-1-yl]-N-phenyl-acetamide], the pIC50 is 7.00 to 8.00. To `Cc1nc(CN2c3nc(N4CCOC[C@H]4C)cc(=O)n3CC[C@@]2(C)C(F)(F)F)no1` [Example 211, (S)-8-Methyl-2-((R)-3-methylmorpholin-4-yl)-9-(5-methyl-[1,2,4]oxadiazol-3-yl-methyl)-8-trifluoromethyl-6,7,8,9-tetrahydro-pyrimido[1,2-a]-pyrimidin-4-one] belongs > 8.00. For the compound `C[C@@H]1COCCN1c1cc(=O)n2c(n1)N(c1cccnc1)[C@H](C(F)(F)F)CC2` [Example 301, (S)-2-((R)-3-Methyl-morpholin-4-yl)-9-pyridin-3-yl-8-trifluoromethyl-6,7,8,9-tetrahydro-pyrimido[1,2-a]-pyrimidin-4-one], the pIC50 is > 8.00. Turning to `C[C@@H]1COCCN1c1cc(=O)n2c(n1)N(Cc1ncco1)[C@H](C(F)(F)F)CC2` [Example 77, (S)-2-((R)-3-Methyl-morpholin-4-yl)-9-oxazol-2-ylmethyl-8-trifluoromethyl-6,7,8,9-tetrahydro-pyrimido[1,2-a]-pyrimidin-4-one], the pIC50 was 7.00 to 8.00. Take `C[C@@H]1COCCN1c1cc(=O)n2c(n1)N(Cc1ccon1)[C@H](C(F)(F)F)CC2` [Example 33, (S)-9-Isoxazol-3-yl-methyl-2-((R)-3-methylmorpholin-4-yl)-8-trifluoromethyl-6,7,8,9-tetrahydro-pyrimido[1,2-a]-pyrimidin-4-one]: the pIC50 is > 8.00.

For the compound `C[C@@H]1COCCN1c1cc(=O)n2c(n1)N(Cc1nc(C(F)(F)F)no1)CC[C@@H]2C(F)(F)F` [Example 144, (R)-2-((R)-3-Methyl-morpholin-4-yl)-6-trifluoromethyl-9-(3-trifluoromethyl-[1,2,4]oxadiazol-5-yl-methyl)-6,7,8,9-tetrahydro-pyrimido[1,2-a]-pyrimidin-4-one], the pIC50 was > 8.00. For `C[C@@H]1COCCN1c1nc2n(c(=O)c1F)CC[C@@H](C(F)(F)F)N2CC(=O)C1CCOCC1` [Example 18, (S)-3-Fluoro-2-((R)-3-methylmorpholin-4-yl)-9-[2-oxo-2-(tetrahydro-pyran-4-yl)ethyl]-8-trifluoromethyl-6,7,8,9-tetrahydro-pyrimido[1,2-a]-pyrimidin-4-one], the pIC50 is > 8.00.

In the case of `CCC(=O)CN1c2nc(N3CCOC[C@H]3C)c(F)c(=O)n2CC[C@H]1C(F)(F)F` [Example 22, (S)-3-Fluoro-2-((R)-3-methylmorpholin-4-yl)-9-(2-oxobutyl)-8-trifluoromethyl-6,7,8,9-tetrahydro-pyrimido[1,2-a]-pyrimidin-4-one], the pIC50 was > 8.00. To `CO/N=C(/CN1c2nc(N3CCOC[C@H]3C)cc(=O)n2CC[C@H]1C(F)(F)F)C1CC1` (single isomer, unassigned) [Example 306] belongs > 8.00; to `O=C(CN1c2nc(N3CC4CCC(C3)O4)cc(=O)n2CC[C@H]1C(F)(F)F)c1cccnc1` [Example 170, (S)-2-(8-Oxa-3-aza-bicyclo[3.2.1]oct-3-yl)-9-(2-oxo-2-pyridin-3-ylethyl)-8-trifluoromethyl-6,7,8,9-tetrahydro-pyrimido[1,2-a]-pyrimidin-4-one], 7.00 to 8.00; to `C[C@@H]1COCCN1c1cc(=O)n2c(n1)N(Cc1ccnc(Cl)c1)[C@H](C(F)(F)F)CC2` [Example 76, (S)-9-(2-Chloro-pyridin-4-ylmethyl)-2-((R)-3-methyl-morpholin-4-yl)-8-trifluoromethyl-6,7,8,9-tetrahydro-pyrimido[1,2-a]-pyrimidin-4-one], > 8.00.

Regarding `CONC(=O)CN1c2nc(N3CCOC[C@H]3C)cc(=O)n2CC[C@H]1C(F)(F)F` [Example 197, N-Methoxy-2-[(S)-8-((R)-3-methyl-morpholin-4-yl)-6-oxo-2-trifluoromethyl-3,4-dihydro-2H,6H-pyrimido[1,2-a]-pyrimidin-1-yl]-acetamide], the pIC50 is 7.00 to 8.00.

Consider `C[C@@H]1COCCN1c1cc(=O)n2c(n1)N(CC(=O)c1ccnc(Cl)c1)[C@H](C(F)(F)F)CC2` [Example 10, (S)-9-[2-(2-Chloro-pyridin-4-yl)-2-oxo-ethyl]-2-((R)-3-methyl-morpholin-4-yl)-8-trifluoromethyl-6,7,8,9-tetrahydro-pyrimido[1,2-a]-pyrimidin-4-one], for which the pIC50 is > 8.00. `C[C@@H]1COCCN1c1cc(=O)n2c(n1)N(Cc1cc(Cl)ccn1)[C@H](C(F)(F)F)CC2` [Example 65, (S)-9-(4-Chloro-pyridin-2-ylmethyl)-2-((R)-3-methyl-mopholin-4-yl)-8-trifluoromethyl-6,7,8,9-tetrahydro-pyrimido[1,2-a]-pyrimidin-4-one]: the negative logarithm of the IC50 (pIC50) is > 8.00. Turning to `Cc1nc(CN2c3nc(N4CCOC[C@H]4C)c(F)c(=O)n3CC[C@H]2C(F)(F)F)no1` [Example 15, (S)-3-Fluoro-2-((R)-3-methylmorpholin-4-yl)-9-(5-methyl-[1,2,4]oxadiazol-3-yl-methyl)-8-trifluoromethyl-6,7,8,9-tetrahydro-pyrimido[1,2-a]-pyrimidin-4-one], the pIC50 is > 8.00. Turning to `C[C@@H]1COCCN1c1nc2n(c(=O)c1F)CCC(C)(C)N2Cc1ccon1` [Example 73, 3-Fluoro-9-isoxazol-3-ylmethyl-8,8-dimethyl-2-((R)-3-methyl-morpholin-4-yl)-6,7,8,9-tetrahydro-pyrimido[1,2-a]-pyrimidin-4-one], the pIC50 is 7.00 to 8.00. The figure for `CC(C)C(=O)CN1CC[C@H](C(F)(F)F)n2c1nc(N1CCOC[C@H]1C)cc2=O` [Example 130, (R)-2-((R)-3-Methyl-morpholin-4-yl)-9-(3-methyl-2-oxobutyl)-6-trifluoromethyl-6,7,8,9-tetrahydro-pyrimido[1,2-a]-pyrimidin-4-one] is > 8.00. In the case of `O=c1cc(N2CC3CCC(C2)O3)nc2n1CC[C@@H](C(F)(F)F)N2Cc1ccc(Cl)s1` [Example 162, (S)-9-(5-Chloro-thiophen-2-ylmethyl)-2-(8-oxa-3-aza-bicyclo[3.2.1]oct-3-yl)-8-trifluoromethyl-6,7,8,9-tetrahydro-pyrimido[1,2-a]-pyrimidin-4-one], the pIC50 is 7.00 to 8.00. To `C[C@@H]1COCCN1c1nc2n(c(=O)c1F)CC[C@@H](C(F)(F)F)N2CC(F)C1CC1` (single isomer, unassigned) [Example 331] belongs > 8.00; to `C[C@@H]1COCCN1c1cc(=O)n2c(n1)N(CC(O)c1cccnc1)[C@H](C(F)(F)F)CC2` (single isomer, unassigned) [Example 209], > 8.00; to `C[C@@H]1COCCN1c1cc(=O)n2c(n1)N(CC(C)(C)O)[C@H](C(F)(F)F)CC2` [Example 84, (S)-9-(2-Hydroxy-2-methylpropyl)-2-((R)-3-methylmorpholin-4-yl)-8-trifluoromethyl-6,7,8,9-tetrahydro-pyrimido[1,2-a]-pyrimidin-4-one], > 8.00.

In the case of `C[C@@H]1COC[C@H](C)N1c1cc(=O)n2c(n1)N(Cc1ccc(Cl)s1)[C@H](C(F)(F)F)CC2` [Example 151, (S)-9-(5-Chloro-thiophen-2-ylmethyl)-2-((3S,5R)-3,5-dimethylmorpholin-4-yl)-8-trifluoromethyl-6,7,8,9-tetrahydro-pyrimido[1,2-a]-pyrimidin-4-one], the pIC50 was 7.00 to 8.00.

In the case of `Cc1noc(CN2c3nc(N4CCOC[C@H]4C)cc(=O)n3CC[C@H]2C(F)(F)F)n1` [Example 17, (S)-2-((R)-3-Methyl-morpholin-4-yl)-9-(3-methyl-[1,2,4]oxadiazol-5-yl-methyl)-8-trifluoromethyl-6,7,8,9-tetrahydro-pyrimido[1,2-a]-pyrimidin-4-one], the pIC50 is > 8.00. Take `CC(C)OCCN1c2nc(N3CCOC[C@H]3C)cc(=O)n2CC[C@H]1C(F)(F)F` [Example 300, (S)-9-(2-Isopropoxy-ethyl)-2-((R)-3-methyl-morpholin-4-yl)-8-trifluoromethyl-6,7,8,9-tetrahydro-pyrimido[1,2-a]-pyrimidin-4-one]: the pIC50 is > 8.00. `CCC(CC)C(=O)CN1c2nc(N3CCOC[C@H]3C)cc(=O)n2CC[C@H]1C(F)(F)F` [Example 281, (S)-9-(3-Ethyl-2-oxo-pentyl)-2-((R)-3-methylmorpholin-4-yl)-8-trifluoromethyl-6,7,8,9-tetrahydro-pyrimido[1,2-a]-pyrimidin-4-one]: the pIC50 was > 8.00. For `CC(C)C(O)CN1c2nc(N3CCOC[C@H]3C)cc(=O)n2CC[C@H]1C(F)(F)F` (stereo partly drawn) [Example 287, (S)-9-(2-Hydroxy-3-methylbutyl)-2-((R)-3-methylmorpholin-4-yl)-8-trifluoromethyl-6,7,8,9-tetrahydro-pyrimido[1,2-a]-pyrimidin-4-one], the pIC50 is > 8.00. On to `C[C@@H]1COCCN1c1nc2n(c(=O)c1F)CC[C@@H](C(F)(F)F)N2c1cccnc1` [Example 47, (S)-3-Fluoro-2-((R)-3-methylmorpholin-4-yl)-9-pyridin-3-yl-8-trifluoromethyl-6,7,8,9-tetrahydro-pyrimido[1,2-a]-pyrimidin-4-one], for which the negative-log IC50 (pIC50) was 7.00 to 8.00. In the case of `C[C@@H]1COCCN1c1cc(=O)n2c(n1)N(Cc1nc(C3CC3)no1)[C@H](C(F)(F)F)CC2` [Example 227, (S)-9-(3-Cyclopropyl-[1,2,4]oxadiazol-5-yl-methyl)-2-((R)-3-methylmorpholin-4-yl)-8-trifluoromethyl-6,7,8,9-tetrahydro-pyrimido[1,2-a]-pyrimidin-4-one], the pIC50 is > 8.00.

Usually pIC50 stands for the negative decadic logarithm of the IC50, by convention in mol/L.

(Values after patent US11739100B2, “2,3-dihydro-1h-imidazo{1,2-a}pyrimidin-5-one and this 1,2,3,4-tetrahydropyrimido{1,2-a}pyrimidin-6-one derivatives comprising a substituted morpholine, preparation thereof and pharmaceutical use thereof” (SANOFI, priority 2012, dated 2023).)
